Publication PMC3720542, “Population pharmacokinetics of mefloquine, piperaquine and artemether-lumefantrine in Cambodian and Tanzanian malaria patients” (Malaria Journal, 2013)
Read-outs that look alike come from different tables or passages of the source. Marks after values point to notes of the source that are not given here. Blank lines part the entries; values can stand above or below the compound they belong to.

Columns and labels:
[1] = Population pharmacokinetic analysis (NONMEM) of artemether-lumefantrine and metabolites in Tanzanian malaria patients (Kibaoni); assay type: in vivo, human; details: for clearance / Vd: human, plasma, oral; for Vd: read-out: VSS (steady-state volume of distribution), population estimate for a person of 70 kg
Protocol: Three studies have been conducted, one in Tanzania and two in Cambodia. The study profiles are described in Figure 1. The first study was performed during March to May 2008 at the Kibaoni Health Centre, Kilombero district, Morogoro region, Tanzania. […] Six AM-LF (Coartem®, Novartis Pharma, Switzerland) doses were administered at time 0, 8, […] according to body weight (see Table 1); patients were either admitted for three days or asked to come back to the health facility for each drug administration. Mothers of breastfed patients were encouraged to feed their children and patients admitted were provided with food. Patients who reported that they have not eaten within two hours to prior dose intake were instructed to eat as soon as possible. Patients were seen by the clinical officer on days 0, 1, 2, 3, 7, 14, 28, and 42. A blood sample for pharmacokinetic measurement was taken at baseline (pre-dose on day 0) and on days 1, 2, and 7 at pre-defined random times after the last dosing. At each visit, a filter paper sample and a thin and thick smear were taken, in addition to axillary temperature, respiratory rate and haemoglobin measurements (only on days 0, 28 and 42) as well as evaluation of symptoms (e.g. headache, vomiting, and diarrhea). The exact dose and time of last drug intake, body weight, height, age, sex, food intake and concomitant medications were carefully recorded. If patients suffered from concomitant illnesses they were provided with additional treatment (paracetamol, mebendazole, metronidazole, cloxacillin, amoxicillin). Samples of 2 ml of venous blood were collected on an EDTA Vacutainer and kept on ice for no longer than 6 h after withdrawal and then aliquoted into whole blood, plasma and pellet and immediately stored in liquid nitrogen or a -80°C freezer. […] The laboratory is part of the quality control system of the World-Wide Antimalarial Resistance Network (WWARN). The pharmacokinetic analysis for each drug taken separately was performed using the NONMEM computer program Version 6 (NM-TRAN version II). It uses mixed (fixed and random) effects regression to estimate population means and variances of the pharmacokinetic parameters and to identify factors that influence them. One-, two- and three-compartment pharmacokinetic models with first-order absorption, with and without absorption lag times, were compared. Additional one or two-compartments were used for anti-malarials presenting metabolite concentrations (AM and LF). The final parameters estimated were systemic clearance (CL/F), inter-compartmental clearance (Q/F), central volume of distribution (VC/F), peripheral volume of distribution (VP/F) and absorption rate constant (ka). Since no intravenous drug concentration data were available, these parameters represent apparent values. Where available, metabolite data were included into the model and metabolism rate constant from drug compartment to metabolite compartment (k23) and metabolite clearance (CLmet) were also estimated. Owing to identifiability problems, the volume of distribution of the metabolites (VM) DLF and DHA were assumed to equal LF and AM VC, respectively. […] The observed baseline residual plasma concentrations were fitted by estimating a factor (F0) that provided an estimation of the residual doses from previous treatment. […] Proportional and combined proportional-and-additive error models were compared to describe intra-patient (residual) variability for the mother compound, and if available for its metabolite using Cpij(1 + ε1ij) + ε2ij or Cmij(1 + ε3ij) + ε4ij, where Cpij are the corresponding predicted i^th drug plasma concentration and Cmij are the predicted metabolite concentration for the j^th individual, and ε1ij, ε2ij, ε3ij, ε4ij, are independent normally distributed residual error terms with a mean of zero and a variance of σ^2_1, σ^2_2, σ^2_3, σ^2_4. The covariate analysis was performed using a stepwise insertion/deletion approach. […]

[2] = cited from earlier work
[3] = Population pharmacokinetic analysis (NONMEM) of piperaquine in Cambodian malaria patients (Pramoy, DHA-PPQ); assay type: in vivo, human
Protocol: The third study was performed during July to October 2008 at Pramoy Health Centre, Veal Veng district, Pursat province, Cambodia. A total of 287 suspected malaria cases were screened by microscopy, of whom 82 (29%) were infected with P. falciparum and 50 (17%) with P. vivax (no mixed infections). Children younger than six years of age and pregnant or lactating women were excluded. Three doses of DHA-PPQ (Duo-Cotecxin®, Zhejiang Holley Nanhu Pharmaceutical Co., Ltd, China) were given according to age (as per national guidelines) on three consecutive days (see Table 1). Same follow-up and blood sampling as at Phnom Dék were performed.
Samples of 2 ml of venous blood were collected on an EDTA Vacutainer and kept on ice for no longer than 6 h after withdrawal and then aliquoted into whole blood, plasma and pellet and immediately stored in liquid nitrogen or a –80°C freezer. […] The method was validated according to FDA recommendations, including assessment of extraction yield, matrix effect variability, overall process efficiency, standard addition experiments as well as anti-malarials short- and long-term stability in plasma. […] The laboratory is part of the quality control system of the World-Wide Antimalarial Resistance Network (WWARN).
The pharmacokinetic analysis for each drug taken separately was performed using the NONMEM computer program Version 6 (NM-TRAN version II). It uses mixed (fixed and random) effects regression to estimate population means and variances of the pharmacokinetic parameters and to identify factors that influence them.
One-, two- and three-compartment pharmacokinetic models with first-order absorption, with and without absorption lag times, were compared. Additional one or two-compartments were used for anti-malarials presenting metabolite concentrations (AM and LF). The final parameters estimated were systemic clearance (CL/F), inter-compartmental clearance (Q/F), central volume of distribution (VC/F), peripheral volume of distribution (VP/F) and absorption rate constant (ka). Since no intravenous drug concentration data were available, these parameters represent apparent values. Where available, metabolite data were included into the model and metabolism rate constant from drug compartment to metabolite compartment (k23) and metabolite clearance (CLmet) were also estimated. Owing to identifiability problems, the volume of distribution of the metabolites (VM) DLF and DHA were assumed to equal LF and AM VC, respectively. […] The observed baseline residual plasma concentrations were fitted by estimating a factor (F0) that provided an estimation of the residual doses from previous treatment.
Exponential errors following a log-normal distribution were assumed for the description of inter-patient variability of the pharmacokinetic parameters and were of the form: θi=θ×e^ηj where θi is the individual pharmacokinetic parameter value in the j^th individual, θ is the population parameter estimate, and ηj is the random effect value, which is independently and normally distributed with a mean of 0 and variance ω^2. Proportional and combined proportional-and-additive error models were compared to describe intra-patient (residual) variability for the mother compound, and if available for its metabolite using Cpij(1 + ϵ1ij) + ϵ2ij or Cmij(1 + ϵ3ij) + ϵ4ij, where Cpij are the corresponding predicted i^th drug plasma concentration and Cmij are the predicted metabolite concentration for the j^th individual, and ϵ1ij, ϵ2ij, ϵ3ij, ϵ4ij, are independent normally distributed residual error terms with a mean of zero and a variance of σ^2_1, σ^2_2, σ^2_3, σ^2_4.
The covariate analysis was performed using a stepwise insertion/deletion approach. Visual inspection of the correlation between post hoc individual estimates of the pharmacokinetic parameters and the available covariates was first conducted by graphical exploration. […]

[4] = present study, Tanzanian patients, sampling 7 days
[5] = patients, age 7.7 ± 1.4 years, n 13, sampling 28 days
[6] = bootstrap evaluation, 200 replicates
[7] = non-pregnant women, median age 27.5 (18–45) years, n 24, sampling 84 days
[8] = patients, median age 6 (2–10) years, n 236, sampling 42 days
[9] = pregnant women, median age 25 (18–43) years, n 24, sampling 84 days
[10] = patients, median age 4.0 (1–10) years, n 50, sampling 72 h
[11] = patients, median age 22 (14–60) years, n 217
[12] = pregnant women, median age 21 (16–35) years, n 21, sampling 10 h

CL, population estimate for a person of 70 kg [1, 4]: 336 L/h | VSS (steady-state volume of distribution), population estimate for a person of 70 kg [1, 4]: 265^f L
Compound: CCCCNCC(O)c1cc(Cl)cc2c1-c1ccc(Cl)cc1/C2=C/c1ccc(Cl)cc1 (centres unmarked) [DLF, desbutyl-lumefantrine]
CL, population estimate for a person of 70 kg [2, 5]: 701 L/h

F0, bootstrap mean of 200 [3, 6]: 125 mg | Q, bootstrap mean of 200 [3, 6]: 126 L/h | VP, bootstrap mean of 200 [3, 6]: 20,053 L | ka, bootstrap mean of 200 [3, 6]: 1.00 h⁻¹ | σC, bootstrap mean of 200 ([3]; bootstrap evaluation, 200 replicates, listed as head prints [μmolL^-1]): 41% | IIV (inter-individual variability) of CL ([3]; final model): 45% | IIV (inter-individual variability) of VC ([3]; final model): 65% | IIV (inter-individual variability) of VP ([3]; final model): 50% | ka (first-order absorption rate constant), population estimate ([3]; final model): 0.93 h⁻¹ | F0 (residual amount from the previous treatment), population estimate ([3]; final model, baseline): 123 mg | clearance ([3]; human, plasma, oral, present study, 60 patients, sampling 14 days): 1820 mL/min | Vd ([3]; human, plasma, oral, present study, 60 patients, sampling 14 days, read-out: VSS, population estimate for a person of 70 kg): 42800 L | residual dose (F0) as percentage of an initial dose ([3]; initial dose 480–960 mg): 12.8–25.6%
Compound: Clc1ccc2c(N3CCN(CCCN4CCN(c5ccnc6cc(Cl)ccc56)CC4)CC3)ccnc2c1 [Piperaquine, piperaquine]
CL, population estimate for a person of 70 kg [2, 7]: 92 L/h | VSS, population estimate for a person of 70 kg [2, 7]: 58,030 L | CL, population estimate ([2]; patients, age 3–55 years, n 98, sampling 63 days): 98^h L/h | VSS, population estimate ([2]; patients, age 3–55 years, n 98, sampling 63 days, for a patient with a median body weight of 48 kg): 61,180^i L | CL, population estimate for a person of 70 kg [2, 8]: 29 L/h | VSS, population estimate for a person of 70 kg [2, 8]: 14,972 L | CL, population estimate for a person of 70 kg [2, 9]: 90 L/h | VSS, population estimate for a person of 70 kg [2, 9]: 37,030 L

VC, bootstrap mean of 200 [1, 6]: 133 L/kg | k23, bootstrap mean of 200 [1, 6]: 5.83 h⁻¹ | ka, bootstrap mean of 200 [1, 6]: 0.27 h⁻¹ | θINH, bootstrap mean of 200 [1, 6]: −0.27 | σC (CV%), bootstrap mean of 200 [1, 6]: 73% | decrease in CL in patients exposed to a CYP2C9 or CYP3A4 inhibitor ([1]; concomitant treatment): 70% | IIV (inter-individual variability) of CL ([1]; final model): 44% | IIV (inter-individual variability) of k23 ([1]; final model): 68% | IIV (inter-individual variability) of ka ([1]; final model): 119% | ka (first-order absorption rate constant), population estimate ([1]; final model): 0.27 h⁻¹ | σC (CV%), residual error for the central compartment, population estimate ([1]; final model, intra-patient variability): 74% | k23 (metabolism rate constant), population estimate ([1]; final model, parent to metabolite (AM to DHA, LF to DLF)): 5.86 h⁻¹ | clearance [1, 4]: 9970 mL/min | Vd [1, 4]: 129 L
Compound: CO[C@H]1O[C@@H]2O[C@@]3(C)CC[C@H]4[C@H](C)CC[C@@H]([C@H]1C)[C@@]24OO3 [Artemether, artemether]
CL, population estimate for a person of 70 kg [2, 5]: 102 L/h | VSS, population estimate for a person of 70 kg [2, 5]: 1263 L | CL, population estimate for a person of 70 kg [2, 10]: 182–700^b L/h | VSS, population estimate for a person of 70 kg [2, 10]: 364 L | CL, population estimate for a person of 70 kg [2, 11]: 252^a L/h | VSS, population estimate for a person of 70 kg [2, 11]: 304^a L | CL, population estimate for a person of 70 kg [2, 12]: 1054^d L/h | VSS, population estimate for a person of 70 kg [2, 12]: 2602^d L

clearance [1, 4]: 6980 mL/min | Vd [1, 4]: 129 L
Compound: C[C@H]1[C@@H](O)O[C@@H]2O[C@@]3(C)CC[C@H]4[C@H](C)CC[C@@H]1[C@@]24OO3 [DHA, dihydroartemisinin]
CL, population estimate for a person of 70 kg [2, 11]: 237^a L/h | CL, population estimate for a person of 70 kg [2, 12]: 564 L/h
